Test results as given in US9534004B2, “Crystalline forms of ceftaroline fosamil” (Sandoz AG, priority 2012, dated 2017).

Assays:
Type in all cases: physicochemical
[1] = Storage at different relative humidities (composition / pKa constancy); conditions: for change of composition when stored at different relative humidities: pKa of the drug substance not affected
Source text: Both ceftaroline fosamil acetic acid solvate monohydrate and ceftaroline fosamil propionic acid solvate monohydrate of EP1310502 A1 contain carbon acids in their crystal structure. […] Consequently in order to avoid batch-wise adjusting of the pH adjusting excipient, ceftaroline fosamil acetic acid solvate monohydrate and ceftaroline fosamil propionic acid solvate monohydrate of EP1310502 A1 need to be stored at low relative humidities in order to ensure a constant carbon acid amount and therefore a constant pKa value of the drug substance.

[2] = Humidity and temperature controlled XRPD (sorptive/desorptive cycle, 0-90% RH); conditions: RH varied between 0 and 90%, 25° C.
Source text: The positions of certain XRPD peaks of form H change when varying the RH between 0 and 90%. XRPD measurements in this range show anisotropic peak shifts to higher 2-theta angles on drying, which are reversible when increasing the relative humidity. These shifts are due to the shrinkage respectively the expansion of the unit cell caused by humidity dependent water contents in the sample. […] Table 1 lists some characteristic XRPD peaks from diffractograms recorded at increasing relative humidities during the sorptive cycle of the experiment.
For humidity and temperature controlled XRPD measurements samples were equilibrated in a VGI 2000M humidity chamber (SMS, Middlesex UK) with integrated peltier heat pump, circulating fluid pump and water reservoir to ensure uniform temperature distribution and stable sample humidities. RH controlled sorptive and desorptive measurements were recorded between 0%-90% RH+/−0.3% RH in 10% steps with an equilibrium time of 2 hours between consecutive measurements.

Residual solvent content = conditions: form obtained from slurry in aqueous ethanol
Source text: The amounts of residual solvents of the novel forms H and D of ceftaroline fosamil of the present invention are well within the allowed ICH-limits. E.g. for the production of form H of ceftaroline fosamil of the present invention no organic solvent is used as this specific form is obtained from a slurry in water. Form D is obtained from a slurry of ceftaroline fosamil in aqueous ethanol. […] Therefore ceftaroline fosamil forms H and D are suitable forms for the preparation of a medicament.

fate of carbon acid in the crystal structure at increased relative humidities ([1]; increased relative humidities, decreased carbon acid amount affects pKa of drug substance) | physical (solid form) stability on varying relative humidity, by XRPD [2] | ethanol amount (residual solvent) (Residual solvent content) | Structure (SMILES) | change of composition when stored at different relative humidities [1]
partially replaced by water | – | – | CCO/N=C(\C(=O)N[C@@H]1C(=O)N2C(C(=O)[O-])=C(Sc3nc(-c4cc[n+](C)cc4)cs3)CS[C@H]12)c1nsc(NP(=O)(O)O)n1 [ceftaroline fosamil acetic acid solvate monohydrate, reference compound] | –
– | no peak shifts are observed | below 0.5% | CCO/N=C(\C(=O)N[C@@H]1C(=O)N2C(C(=O)[O-])=C(Sc3nc(-c4cc[n+](C)cc4)cs3)CS[C@H]12)c1nsc(NP(=O)(O)O)n1 [form D, ceftaroline fosamil] | only show variations in their water content
– | a phase transformation can be excluded | – | CCO/N=C(\C(=O)N[C@@H]1C(=O)N2C(C(=O)[O-])=C(Sc3nc(-c4cc[n+](C)cc4)cs3)CS[C@H]12)c1nsc(NP(=O)(O)O)n1 [form H, ceftaroline fosamil] | only show variations in their water content
